Like-named read-outs stand apart in the source and are kept apart here. Square brackets hold non-standard residues; d marks the D form. Ends that are not written are not given here. Cit = NC(=O)NCCC[C@H](N)C(=O)O
Columns and labels:
[1] = system: splenocytes; test: Ex vivo elispot assay on splenocytes of immunised C57B1 mice; format: in vivo, C57BL/6 mice; details: C57B1 mice
Experimental: (§1) C57BL/6 mice (Charles River, UK), HLA-DR4 mice (Taconic, USA), HHDII mice (Pasteur institute, France) and HHDII/DRI mice (Pasteur institute, France) were used, aged between 8 and 12 weeks, and cared for by the staff at Nottingham Trent University. All work was carried out under a Home Office project license. Peptides were dissolved in 10% Dimethylformamide to 1 mg/ml and then emulsified (a series of dilutions) with different adjuvants: CpG and MPLA 6 μg/mouse of each (Invivogen, UK), Incomplete Freund's […] (Sigma, UK), and GMCSF 10 μg/mouse (Peprotech, UK). Peptides (25 μg/mouse) were injected subcutaneously at the base of the tail. DNA (1 μg/mouse) was coated onto 1.0 μm gold particles (BioRad, Hemel Hempstead, UK) using the manufacturer's instructions and administered intradermally by genegun (BioRad). Homspera (10 nM/mouse) (PeptideSynthetics, UK) was injected intradermally with genegun immunisation. Mice were immunized at either day 0 for peptide immunisation or days, 0, 7, and 14 for peptide and genegun immunisation. Spleens were removed for analysis at day 14 for peptide and day 20 for peptide or genegun immunisation unless stated otherwise. 400 μg Anti-CD25 antibody (PC61) was administered i.p. in saline 3 days prior to the immunisation. 200 μg Anti-CTLA-4 antibody (UC 10-4F, 10-11) was administered i.p. in saline at day 7 and 14 with either genegun or peptide immunisation.
(§2) Elispot assays were performed using murine IFNγ, IL-17 and IL-10 capture and detection reagents according to the manufacturer's instructions (Mabtech, Sweden). In brief, anti-IFNγ, IL-17 and IL-10 antibodies were coated onto wells of 96-well Immobilin-P plate. Synthetic peptides (at a variety of concentrations) and 5×10^5 per well splenocytes were added to the wells of the plate in triplicate. Tumour target cells were added where relevant at 5×10^4/well in triplicate and plates incubated for 40 hrs at 37° C. After incubation, captured IFNγ, […], IL-17 and IL-10 were detected by biotinylated anti-IFNγ, IL-17 and IL-10 antibodies and developed with a strepatavidin alkaline phosphatase and chromogenic substrate. Spots were analysed and counted using an automated plate reader (Cellular Technologies Ltd). Functional avidity was calculated as the concentration mediating 50% maximal effector function using a graph of effector function versus peptide concentration.

[2] = system: Granzyme B; test: Granzyme B ELISA on supernatant of ex vivo IFNγ elispot; format: cell-based, HLA-DR4 transgenic mice; details: immunised days 0, 7, 14 in CPG and MPLA
Description: Supernatant from ex vivo IFNγ elispot assays on splenocytes was removed after 40 hrs and assessed for Granzyme B by elisa assay (R&D systems) according to manufacturer's instructions.

[3] = system: T2 DR4 tumour cells; test: 51Cr-release assay, CTL lines from immunised mice against T2 DR4 cells; format: cell-based; details: for killing of normal splenocytes: DR4 splenocytes; for killing of T2 tumour cells transfected with human DR4: targets pulsed with peptide or not
Experimental: Target cells were labelled for 1 hr with 1.85 MBq sodium (^51Cr) chromate (Amersham, Essex, UK) with or without 10 μg/ml peptide. Post incubation they were washed 3 times in RPMI. Targets 5×10^3/well of a 96-well V-bottomed plates were set up and co incubated with different densities of effector cells in a final volume of 200 μl of RPMI, 10% FCS (Sigma), 20 mM HEPES buffer, 2 mM L-glutamine, 100 units/ml penicillin and 100 μg/ml streptomycin. After 20 hrs at 37° C., 50 μl of supernatants were removed from each well and transferred to a Lumaplate (Packard, Rigaweg, the Netherlands). Plates were read on a Topcount Microplate Scintillation Counter (Packard). Percentage specific lysis was calculated using the following formula: specific lysis=100×[(experimental release−spontaneous release)/(maximum release−spontaneous release)].

[4] = system: PBMC; test: Proliferation assay of PBMC from cancer patients; format: cell-based, human; details: PBMC stimulated with 10 μg/ml peptide for 4, 7 and 11 days, 3H-thymidine
Experimental: PBMC were isolated from freshly drawn heparinised blood by Ficol-Hypaque (Sigma) gradient centrifugation. PBMC (1.5×10^6 cells/well) were stimulated with single peptides (final concentration 10 μg/ml) in RPMI containing 5% pooled autologous human serum, 2 mM glutamine, 20 mM HEPES and Penicillin-streptomycin (1%) in a final volume of 2 ml. Stimulation with purified protein derivative, PPD (final concentration 10 μg/ml) served as a positive control for the proliferative capacity of PBMC. As a negative control PBMC were incubated with medium alone. The PBMC were cultured at 37° C. in an atmosphere of 5% CO2 for 4, 7 and 11 days. To assess proliferation at these times points 100 μl in triplicate from each culture was aliquoted into a round bottom well of a 96 well plate and ^3H-thymidine added (0.0185 MBq/well) and incubated at 37° C. for a further 8 hours. The cultures were harvested onto unifilter plates and incorporation of ^3H-thymidine was determined by β-scintillation counting. The results were assessed by calculating the stimulation index (SI) as the ratio of the mean of counts per minute (cpm) of epitope-stimulated to the mean of unstimulated cultures. The proliferative assay was considered positive when SI >2.5.

[5] = system: splenocytes; test: Ex vivo elispot assay on splenocytes of immunised HLA-DR4 transgenic mice; format: in vivo; details: for IFNγ/IL-17 response with alum or IFA / IFNγ/IL-17 responses with CpG/MPLA, GMCSF and TMX201 adjuvants / IL-10 responses to the citrullinated peptides with IFA: 25 μg peptide s.c.; for IL-10 elispot responses: against wild type and citrullinated peptides; for IFNγ elispot response to citrullinated peptide, mean / IFNγ elispot response to wild type peptide, mean: day 14 splenocytes; for response after depletion of CD4 cells or addition of MHC class II blocking antibody: L243 antibody, FIG. 15
Experimental: as §1, §2

[6] = system: splenocytes; test: Ex vivo elispot assay on splenocytes of immunised HLA-DR1 / HLA-A2/DR1 (HHDII/DR1) transgenic mice; format: in vivo; details: HHD1/DR1 mice
Experimental: as §1, §2

[7] = system: B16F1 cells; test: Tumour challenge with B16 tumour lacking HLA-DR0401; format: in vivo, HLA-DR4 transgenic mice; details: B16 tumour lacking expression of HLA-DR0401; 25 μg peptide in CpG and MPLA
Experimental: (§3) For tumour challenge experiments mice were challenged with 2.5×10^4 B16 HHDII NYESO/TAP2 siβ2m 1F10 cells or B16 DR4 2E7 cells subcutaneously on the right flank 3 days prior to primary immunisation and then were immunised as above. Anti-IFNγ antibody (300 μg/dose), anti-IL-17 antibody (200 μg/dose) and anti-HLA-DR antibody (300 μg/dose) were administered i.p. in saline at days 2, 7, 11 and 14 post tumour implant. Anti-CD4 antibody (500 μg/dose) was administered i.p.in saline at days 2 and 8 post tumour implant. Tumour growth was monitored at 3-4 days intervals and mice were humanely euthanized once tumour reached ≥10 mm in diameter.

[8] = system: B16F1-DR4 cells; test: Tumour challenge with B16F1-DR4 cells; format: in vivo, HLA-DR4 transgenic mice; details: for anti-tumour response with blockade of IFNγ in vivo: IFNγ neutralising monoclonal antibody; for anti-tumour response with blockade of IL-17 in vivo: IL-17 neutralising antibody; for anti-tumour response in combination with CD4 T cell depletion (anti-CD4 antibody): clone GK1.5; for anti-tumour response / survival: peptide 25 μg in CpG and MPLA s.c. or DNA via gene gun, days 4, 11, 18, versus unimmunised control
Experimental: as §3

[9] = target: HLA-DR0401 (Homo sapiens, UniProt P01903+P01911, A100K/A169T/F76Y/I96L/K127E/L162R/M171V/N62H/P40V/Q125Y/R42H/S133A/S149N/S66Y/V115G/V209L/W38E); test: HLADR0401 competitive binding assay against biotinylated HA306-318; details: FIG. 12
Description: In brief, peptides of interest were mixed with a predetermined concentration biotinylated HA306-318 reference peptide at increasing concentrations and added to plate bound HLA DR0401. Amounts of biotinylated reference peptide binding to HLA DR0401 was quantified using streptavidin linked enzyme step followed by detection with chromogenic substrate. Maximal binding is taken as the value achieved by biotinylated HA 306-318 peptide alone. As a positive control unlabelled HA 306-318 peptide was used to compete with the biotinylated version.

[10] = target: T1, HLA-DR0401 (human); test: competitive binding assay, plate-bound HLA-DR0401, biotinylated HA306-318 as competitor
T1 construct: also called purified HLA-DR0401; HLA-DR4

[11] = 25 μg peptide with CpG and MPLA day 0, day 14
[12] = 25 μg peptide with CpG and MPLA day 0, day 14, peptide 5 μM
[13] = 25 μg peptide with CpG and MPLA day 0, peptide 5 μM
[14] = 25 μg peptide in CpG and MPLA s.c. days 4, 11, 18

Molecule	response after peptide immunisation [1]	Granzyme B release upon stimulation with citrullinated peptides [2]	killing of normal splenocytes [3]	killing of T2 tumour cells transfected with human DR4 [3]	IFNγ/IL-17 response with alum or IFA ([5]; day 14)	IFNγ/IL-17 responses with CpG/MPLA, GMCSF and TMX201 adjuvants ([5]; day 14)	IL-10 responses to the citrullinated peptides with IFA ([5]; day 14)	IL-10 elispot responses [5, 11]	IFNγ elispot response to citrullinated peptide, mean [5, 13]	IFNγ elispot response to wild type peptide, mean [5, 13]	response after depletion of CD4 cells or addition of MHC class II blocking antibody ([5]; IFNγ elispot)	response after peptide immunisation [6]	tumour growth and survival [7]	anti-tumour response with blockade of IFNγ in vivo [8]	anti-tumour response with blockade of IL-17 in vivo [8]	anti-tumour response in combination with CD4 T cell depletion (anti-CD4 antibody) [8]	anti-tumour response / survival [8]	further results
LPNFSSLNLRETNLDSLPL [citrullinated vim 415]	failed to raise a response	release of Granzyme B	no killing of normal splenocytes	killed transfected targets whether they were pulsed with the appropriate peptide or not	no response	Potent IFNγ/IL-17 responses	high frequency IL-10 responses	No significant IL-10 responses	1000 /million splenocytes	no responses	CD4 mediated	failed to raise a response	failed to show any tumour response	abrogates	low significant influence	totally abrogates the anti-tumour response	strong anti-tumour responses	patients showing a proliferative response (SI >2.5) ([4]; listed as citrullinated vim 415-433): 5/11; patients showing a proliferative response (SI >2.5) ([4]; listed as vim 415 cit): Five of eight; EC50 ([5]; 25 μg peptide days 0, 7, 14, anti-CTLA-4 days 7 and 14, day 21, IFNγ elispot, read-out: avidity of the T cell response in the presence of an anti-CTLA-4 mab): 10 nM; EC50 ([5]; 25 μg peptide days 0, 7, 14, day 21, IFNγ elispot, read-out: avidity of the T cell response without anti-CTLA-4 mab): 1000 nM; IL-2 elispot response to citrullinated peptide, mean [5, 12]: 350 /million splenocytes; IL-2 elispot response to wild type peptide [5, 12]: no response; IL-17 elispot response to citrullinated peptide, mean [5, 12]: 530 /million splenocytes; IL-17 elispot response to wild type peptide, mean [5, 12]: 140 /million splenocytes; T cell responses to mouse vim 415 cit versus human vim 415 cit ([5]; immunised with 25 μg human peptide day 0, day 14, IFNγ and IL-17 elispot): equal responses to both peptides; T helper phenotype when immunised with complete Freund's adjuvant ([5]; mouse, in vivo): Th1/IL-17 phenotype; mice cured of their tumour [8, 14]: 30%; mice with no tumour at day 35 [8, 14]: 50%; anti-tumour response in combination with anti-HLA-DR blocking antibody ([8]; B16 tumour expressing HLA-DR0401): prevents the anti-tumour response
citSYVTTSTcitTYSLGSALcitPSTS ([Cit]SYVTTST[Cit]TYSLGSAL[Cit]PSTS) [citrullinated vim 28-49]	failed to raise a response	release of Granzyme B	no killing of normal splenocytes	killed transfected targets whether they were pulsed with the appropriate peptide or not	no response	Potent IFNγ/IL-17 responses	high frequency IL-10 responses	No significant IL-10 responses	600 /million splenocytes	250 /million splenocytes	CD4 mediated	failed to raise a response	delayed tumour growth and enhanced survival	abrogates	small effect significant influence	totally abrogates the anti-tumour response	significantly enhanced survival	binding to HLA-DR0401 (competition with HA 306-318 reference peptide) [9]: better binding to HLA-DR0401 compared to the wild type version; patients showing a proliferative response (SI >2.5) [4]: 5/11; patients showing a proliferative response (SI >2.5) ([4]; listed as vim 28 cit): five; EC50 ([5]; 25 μg peptide day 0, day 14, increasing peptide concentration, IFNγ elispot, read-out: avidity of the IFNγ response (concentration mediating 50% maximal effector function)): 1000 nM; EC50 ([5]; 25 μg peptide day 0, day 14, increasing peptide concentration, IL-17 elispot, read-out: avidity of the IL-17 response (concentration mediating 50% maximal effector function)): 1000 nM; IFNγ elispot response against vimentin 28-49 triple, double and single citrullinated peptides ([5]; peptide immunisation, FIG. 11): significantly stronger response
RSYVTTSTRTYSLGSALRPSTS (also called vim 28-49; vim 28) [Vimentin 28-49 wild type peptide]																		binding result [10]: binds
